Measured values reported in US20100303758A1, “Novel Glucocorticoid Receptor Agonists” (priority 2009, published 2010).

Assays:
Type in all cases: cell-based
[1] = test system: tumour necrosis factor-α (TNF-α) release from lipopolysaccharide (LPS) stimulated isolated human peripheral mononuclear cells (PBMC); assay: Inhibition of TNF-α release from LPS stimulated isolated human PBMC; conditions: LPS stimulated human PBMC; 1 h pre-incubation, 18 hours after LPS; TNF-α by ELISA
Summary of the method: (§1)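 Human PBMC from EDTA blood of healthy donors, at 1×10^6 lymphocytes/ml in HBSS/HEPES/BSA buffer, were preincubated with compound (1% DMSO final) for 1 h at 37° C, then stimulated with LPS (added as 100 ng/ml solution) for 18 hours. Supernatant TNF-α was measured by ELISA, and IC50 was derived from dose-response curves.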

human GR = target: T1, human GR (Homo sapiens, UniProt P04150); assay: GR agonist potency, MMTV-luciferase reporter in SW1353 cells; conditions: human chondrosarcoma cell-line SW1353 stably transfected with MMTV-luciferase reporter; approx. 18 hours; data as percentage of 1 μM dexamethasone positive control
T1 construct: SW1353 naturally expresses human GR; endogenous in cells; host or cells: human chondrosarcoma cell-line SW1353 stably transfected with an MMTV-luciferase reporter construct
T1 sequence (P04150 1-777): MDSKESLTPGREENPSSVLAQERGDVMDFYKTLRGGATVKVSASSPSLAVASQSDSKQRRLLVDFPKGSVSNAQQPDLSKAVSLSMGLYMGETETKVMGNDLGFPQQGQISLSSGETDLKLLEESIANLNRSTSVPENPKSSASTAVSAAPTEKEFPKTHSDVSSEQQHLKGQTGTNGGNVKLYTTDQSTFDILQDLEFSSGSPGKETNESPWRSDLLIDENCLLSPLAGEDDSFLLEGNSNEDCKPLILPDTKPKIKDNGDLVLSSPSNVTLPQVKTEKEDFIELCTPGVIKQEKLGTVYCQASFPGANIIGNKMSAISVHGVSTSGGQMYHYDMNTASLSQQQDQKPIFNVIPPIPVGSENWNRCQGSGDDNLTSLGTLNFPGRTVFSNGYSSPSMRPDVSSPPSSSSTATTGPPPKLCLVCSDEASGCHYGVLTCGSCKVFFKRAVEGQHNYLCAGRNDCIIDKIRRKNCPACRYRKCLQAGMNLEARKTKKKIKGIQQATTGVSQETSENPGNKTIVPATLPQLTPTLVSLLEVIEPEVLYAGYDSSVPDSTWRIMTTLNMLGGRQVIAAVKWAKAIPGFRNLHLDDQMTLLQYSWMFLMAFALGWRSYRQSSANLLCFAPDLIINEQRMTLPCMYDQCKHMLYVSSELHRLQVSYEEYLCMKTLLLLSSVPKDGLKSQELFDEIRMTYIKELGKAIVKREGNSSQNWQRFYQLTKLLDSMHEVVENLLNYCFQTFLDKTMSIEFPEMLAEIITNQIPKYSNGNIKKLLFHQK
Summary of the method: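 SW1353 chondrosarcoma cells stably carrying MMTV-luciferase, endogenous GR, exposed to compound ~18 h at 37 °C. Luminescence expressed as percent of 1 μM dexamethasone response; EC50 estimated from dose-response curves.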

[2] = Inhibition of TNF-α release from LPS stimulated isolated human PBMC; conditions: Homo sapiens, PBMC, read-out: IC50 (nM) for inhibition of TNF-α release
Summary of the method: as §1

SMILES | IC50 [1] [nM] | EC50 (human GR) [nM] | IC50 [2] [nM]
CC12C=CC(=O)C=C1CCC1C3CCC(OC(=O)c4ccc(Cc5ccccc5)cc4)(C(=O)OCC#N)C3(C)CC(O)C12F (centres unmarked) [Example 9] | 0.21 |  | 
CC12C=CC(=O)C=C1CCC1C3CCC(OC(=O)c4ccc(Sc5ccc(O)cc5)cc4)(C(=O)OCC#N)C3(C)CC(O)C12F (stereo not drawn) [Example 18, cyanomethyl (11beta,17alpha)-9-fluoro-11-hydroxy-17-({4-[(4-hydroxyphenyl)thio]benzoyl}oxy)-3-oxoandrosta-1,4-d iene-17-carboxylate] | 0.138 | 34.9 | 
CC12C=CC(=O)C=C1CCC1C3CCC(OC(=O)c4ccc(Oc5ccc(Cl)c(O)c5)cc4)(C(=O)OCC#N)C3(C)CC(O)C12F (stereo not drawn) [Example 34, cyanomethyl (11beta,17alpha)-17-{[4-(4-chloro-3-hydroxyphenoxy)-benzoyl]oxy}-9-fluoro-11-hydroxy-oxoandrosta-1,4-diene-17-carboxylate] | 0.278 | 100 | 
CSc1ccc(Oc2ccc(C(=O)O[C@]3(C(=O)OCC#N)[C@H](C)C[C@H]4[C@@H]5C[C@H](F)C6=CC(=O)C=C[C@]6(C)[C@@]5(F)[C@@H](O)C[C@@]43C)cc2)cc1 [Example 48, Cyanomethyl (6alpha,11beta,16alpha, 17alpha)-6,9-difluoro-11-hydroxy-16-methyl-17-({4-[4-(methylthio)phenoxy]benzoyl}oxy)-3-oxoandrosta-1,4-diene-17-carboxylate] |  | 14.2 | 0.09
CSc1cccc(Sc2ccc(C(=O)O[C@]3(C(=O)OCC#N)[C@H](C)C[C@H]4[C@@H]5C[C@H](F)C6=CC(=O)C=C[C@]6(C)[C@@]5(F)[C@@H](O)C[C@@]43C)cc2)c1 [Example 49, Cyanomethyl (6alpha,11beta,16alpha, 17alpha)-6,9-difluoro-11-hydroxy-16-methyl-17-[(4-{[3-(methylthio)phenyl]thio}benzoyl)oxy]-3-oxoandrosta-1,4-diene-17-carboxylate] |  | 90.8 | 0.738
CSc1ccc(Sc2ccc(C(=O)O[C@]3(C(=O)OCF)[C@H](C)C[C@H]4[C@@H]5C[C@H](F)C6=CC(=O)C=C[C@]6(C)[C@@]5(F)[C@@H](O)C[C@@]43C)cc2)cc1 [Example 50, Fluoromethyl (6alpha,11beta,16alpha, 17alpha)-6,9-difluoro-11-hydroxy-16-methyl-17-[(4-{[4-(methylthio)phenyl]thio}benzoyl)oxy]-3-oxoandrosta-1,4-diene-17-carboxylate] |  | 11.5 | 0.052
CSc1cccc(Oc2ccc(C(=O)O[C@]3(C(=O)OCF)[C@H](C)C[C@H]4[C@@H]5C[C@H](F)C6=CC(=O)C=C[C@]6(C)[C@@]5(F)[C@@H](O)C[C@@]43C)cc2)c1 [Example 51, Fluoromethyl (6alpha,11beta,16alpha, 17alpha)-6,9-difluoro-11-hydroxy-16-methyl-17-({4-[3-(methylthio)phenoxy]benzoyl}oxy)-3-oxoandrosta-1,4-diene-17-carboxylate] |  | 8.7 | 0.057
CSc1ccc(Oc2ccc(C(=O)OC3(C(=O)OCF)C(C)CC4C5CC(F)C6=CC(=O)C=CC6(C)C5(F)C(O)CC43C)cc2)cc1 (stereo not drawn) [Example 52, Fluoromethyl (6alpha,11beta,16alpha, 17alpha)-6,9-difluoro-11-hydroxy-16-methyl-17-({4-[4-(methylthio)phenoxy]benzoyl}oxy)-3-oxoandrosta-1,4-diene-17-carboxylate] | 0.033 | 6.05 | 
CSc1cccc(Sc2ccc(C(=O)O[C@]3(C(=O)OCF)[C@H](C)C[C@H]4[C@@H]5C[C@H](F)C6=CC(=O)C=C[C@]6(C)[C@@]5(F)[C@@H](O)C[C@@]43C)cc2)c1 [Example 53] |  | 11.8 | 0.086
